These results are taken from US20230279016A1, “Tetrahydropyrazolopyrimidines and Related Analogs for Inhibiting YAP/TAZ-TEAD” (THE KATHOLIEKE UNIVERSITEIT LEUVEN, priority 2021, published 2023).

Format in all cases: cell-based
For assay [1], the system named is NCI-H2052 mesothelioma cell line. Description: Mesothelioma cell line proliferation assay, NCI-H2052. Particulars: NCI-H2052, 6 days with compound, cell viability by ATPlite. In short, it runs like this: (§1)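 Cells were seeded at 1500 cells/well in RPMI 1640 with 10% FBS, left overnight, then exposed to DMSO-dissolved compounds in dose-response for 6 days at 37 °C, 5% CO2. Viability was measured by ATPlite luminescence, converted to percent inhibition, and used to derive EC50.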
In general terms: In ATP-based viability assays light output follows the ATP content of the culture.

Assay [2] concerns NCI-H226 mesothelioma cell line. Description: Mesothelioma cell line proliferation assay, NCI-H226. Particulars: NCI-H226, 6 days with compound, cell viability by ATPlite. In outline: as §1
For assay [3], the system named is YAP/TAZ-TEAD transcription. Description: Reporter gene assay for measuring the inhibition of YAP/TAZ-TEAD transcription (TEAD-responsive element luciferase reporter in Hek293T cells). To be noted: Hek293T cells transiently transfected with TEAD-responsive element luciferase reporter, 24 hours incubation. In short, it runs like this:
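Hek293T cells transiently transfected with TEAD-responsive luciferase reporter, exposed to compound for 24 h at 37° C/5% CO2, then read by luminescence. Percent inhibition normalized to vehicle (0%) and positive control inhibitor (100%); EC50 reported as activity ranges.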

What is called EC50 is the concentration at which the effect is half-maximal. As to `C=CC(=O)NCC1CN(c2ccc(C(F)(F)F)cc2F)c2ccnn2C1` (single isomer, unassigned) [Cpd. No. 016-En2, (R)- or (S)-N-((4-(2-fluoro-4-(trifluoromethyl)phenyl)-4,5,6,7-tetrahydropyrazolo[1,5-a]pyrimidin-6-yl)methyl)acrylamide], the EC50 in assay [1] was greater than 10000 nM; in assay [2] it was less than 1000 nM; in assay [3] it was less than 1000 nM.
For the compound `C=CC(=O)NCC1CN(c2ccc(C(C)C)cc2)c2ccnn2C1` (single isomer, unassigned) [Cpd. No. 013-En2, (R)- or (S)-N-((4-(4-ispropylphenyl)-4,5,6,7-tetrahydropyrazolo[1,5-a]pyrimidin-6-yl)methyl)acrylamide], the figures for the EC50 in assay [1], in assay [2] and in assay [3] were 1000 to 10000 nM, less than 1000 nM and less than 1000 nM, respectively.
Turning to `C=CC(=O)NCC1CN(Cc2ccc(C(F)(F)F)cc2)c2ccnn2C1` (stereo not drawn) [Cpd. No. 048, N-((4-(4-(trifluoro-methyl)benzyl)-4,5,6,7-tetrahydropyrazolo[1,5-a]pyrimidin-6-yl)methyl)acrylamide], the concentration giving a half-maximal response (EC50) in assay [1] (Homo sapiens, NCI-H2052, 144 h) was less than 1000 nM; in assay [2] (Homo sapiens, NCI-H226, 144 h) it was less than 1000 nM; in assay [3] (Homo sapiens, HEK-293T, 24 h), less than 1000 nM.
Take `C=CC(=O)NCC1CNc2c(CC#Cc3ccccc3)cnn2C1` (stereo not drawn) [Cpd. No. 059, N-((3-(3-phenylprop-2-yn-1-yl)-4,5,6,7-tetrahydropyrazolo[1,5-a]pyrimidin-6-yl)-methyl)acrylamide]: the EC50 in assay [1] (Homo sapiens, NCI-H2052, 144 h) was greater than 10000 nM; in assay [2] (Homo sapiens, NCI-H226, 144 h), greater than 10000 nM; in assay [3] (Homo sapiens, HEK-293T, 24 h), less than 1000 nM.
On to `C=CC(=O)N1CCC2(C1)CN(c1ccc(C(F)(F)F)cc1)c1ccnn1C2` (stereo not drawn) [Cpd. No. 088, 1-(4-(4-(trifluoromethyl)phenyl)-4,5-dihydro-7H-spiro[pyrazolo[1,5-a]pyrimidine-6,3′-pyrrolidin]-1′-yl)prop-2-en-1-one], for which the half-maximal effective concentration (EC50) in assay [1] (Homo sapiens, NCI-H2052, 144 h) is less than 1000 nM; in assay [2] (Homo sapiens, NCI-H226, 144 h), less than 1000 nM; in assay [3] (Homo sapiens, HEK-293T, 24 h), less than 1000 nM.
Regarding `C=CC(=O)NCC1Cc2c(cnn2C)N(c2ccc(C(F)(F)F)cc2)C1` (stereo not drawn) [Cpd. No. 068, N-((1-methyl-4-(4-(trifluoromethyl)phenyl)-4,5,6,7-tetrahydro-1H-pyrazolo[4,3-b]pyridin-6-yl)methyl)acrylamide], the EC50 is less than 1000 nM in assay [1] (Homo sapiens, NCI-H2052, 144 h); less than 1000 nM in assay [2] (Homo sapiens, NCI-H226, 144 h); less than 1000 nM in assay [3] (Homo sapiens, HEK-293T, 24 h).
In the case of `C=CC(=O)NCC1CN(c2ccc(C(F)(F)F)c(F)c2)c2ccnn2C1` (stereo not drawn) [Cpd. No. 015, N-((4-(3-fluoro-4-(trifluoromethyl)phenyl)-4,5,6,7-tetrahydropyrazolo[1,5-a]pyrimidin-6-yl)methyl)acrylamide], the EC50 in assay [1] (Homo sapiens, NCI-H2052, 144 h) was less than 1000 nM; in assay [2] (Homo sapiens, NCI-H226, 144 h), less than 1000 nM; in assay [3] (Homo sapiens, HEK-293T, 24 h) it was less than 1000 nM.
Take `O=C1NCCC12CN(c1ccc(C(F)(F)F)cc1)c1ccnn1C2` (stereo not drawn) [Cpd. No. 087, 4-(4-(trifluoromethyl)phenyl)-4,5-dihydro-7H-spiro[pyrazolo[1,5-a]pyrimidine-6,3′-pyrrolidin]-2′-one]: the EC50 was greater than 10000 nM in assay [1] (Homo sapiens, NCI-H2052, 144 h); greater than 10000 nM in assay [2] (Homo sapiens, NCI-H226, 144 h); less than 1000 nM in assay [3] (Homo sapiens, HEK-293T, 24 h).
Consider `C=CC(=O)NCC1Cc2c(cnn2Cc2cccc(C(N)=O)c2)N(c2ccc(C(F)(F)F)cc2)C1` (stereo not drawn) [Cpd. No. 080, 3-((6-(acrylamido-methyl)-4-(4-(trifluoromethyl)phenyl)-4,5,6,7-tetrahydro-1H-pyrazolo[4,3-b]pyridin-1-yl)methyl)benzamide], for which the concentration giving a half-maximal response (EC50) was less than 1000 nM in assay [1] (Homo sapiens, NCI-H2052, 144 h); less than 1000 nM in assay [2] (Homo sapiens, NCI-H226, 144 h); less than 1000 nM in assay [3] (Homo sapiens, HEK-293T, 24 h).
Turning to `C=CC(=O)NCC1CN(c2ccc(SC(F)(F)F)cc2)c2ccnn2C1` (single isomer, unassigned) [Cpd. No. 020-En2, (R)- or (S)-N-((4-(4-((trifluoromethyl)thio)phenyl)-4,5,6,7-tetrahydropyrazolo[1,5-a]pyrimidin-6-yl)methyl)acrylamide], the EC50 in assay [1] is 1000 to 10000 nM; in assay [2] it was greater than 10000 nM; in assay [3], less than 1000 nM.
Take `C=CC(=O)NCC1CN(c2ccc(OC(F)F)cc2)c2ccnn2C1` (stereo not drawn) [Cpd. No. 012, N-((4-(4-(difluoromethoxy)phenyl)-4,5,6,7-tetrahydropyrazolo[1,5-a]pyrimidin-6-yl)methyl)acrylamide]: the EC50 in assay [1] is less than 1000 nM; in assay [2] (Homo sapiens, NCI-H226, 144 h), less than 1000 nM; in assay [3] (Homo sapiens, HEK-293T, 24 h), less than 1000 nM.
As for `C=CC(=O)NCC1CN(c2ccc(C3CC3)cc2)c2ccnn2C1` (single isomer, unassigned) [Cpd. No. 022-En2, (R)- or (S)-N-((4-(4-cyclopropylphenyl)-4,5,6,7-tetrahydropyrazolo[1,5-a]pyrimidin-6-yl)methyl)acrylamide], the EC50 is greater than 10000 nM in assay [1], less than 1000 nM in assay [2] and less than 1000 nM in assay [3].
On to `C=CC(=O)NC1CN(c2ccc(OC(F)(F)F)cc2)c2ccnn2C1` (stereo not drawn) [Cpd. No. 063, N-(4-(4-(trifluoromethoxy)phenyl)-4,5,6,7-tetrahydropyrazolo[1,5-a]pyrimidin-6-yl)acrylamide], for which the EC50 in assay [1] (Homo sapiens, NCI-H2052, 144 h) was less than 1000 nM; in assay [2] (Homo sapiens, NCI-H226, 144 h), less than 1000 nM; in assay [3] (Homo sapiens, HEK-293T, 24 h), less than 1000 nM.
Consider `C=CC(=O)NCC1Cc2c(cnn2C(F)F)N(c2ccc(C(F)(F)F)cc2)C1` (single isomer, unassigned) [Cpd. No. 084-En2, (R)- or (S)-N-((1-(difluoromethyl)-4-(4-(trifluoromethyl)phenyl)-4,5,6,7-tetrahydro-1H-pyrazolo[4,3-b]pyridin-6-yl)methyl)acrylamide], for which the concentration for a half-maximal effect (EC50) in assay [1], in assay [2] and in assay [3] was less than 1000 nM in each case.
